The source of these data is ChEMBL document CHEMBL3244292, “Imidazo[4,5-f]quinolines. 2. A series of 9-(substituted amino)imidazo[4,5-f]quinolines as antitapeworm agents” (1977).

Calls of active or inactive are those of the source. The calls are words filed in the database; no cut-off is given here.

The first assay deals with Rodentolepis nana. The assay can be described thus: Anthelmintic activity against Hymenolepis nana infected in mouse assessed as reduction in worm burden at 50 mg/kg administered bid for 3 days relative to control. The format is functional.
In the case of `Cc1cc(Nc2cccc3ccccc23)c2c(ccc3nc[nH]c32)n1`, the result was inactive.
Still for that read-out and setting: for `COc1ccc(Nc2cc(-c3ccccc3)nc3ccc4nc[nH]c4c23)cc1` the value was “inactive”; for `CSc1ccc(Nc2cc(C)nc3ccc4nc[nH]c4c23)cc1`, 62%; for `Cc1cc(Nc2ccc(N3CCCCC3)c(Cl)c2)c2c(ccc3nc[nH]c32)n1`, 80%.
Same read-out and setting: for `CCC(=O)c1ccc(Nc2cc(C)nc3ccc4nc[nH]c4c23)cc1` the value was 78%; for `Cc1cc(Nc2ccc(Oc3ccccc3)cc2)c2c(ccc3nc[nH]c32)n1`, 66%.
Turning to `CCc1ccc(Nc2cc(C)nc3ccc4nc[nH]c4c23)cc1Cl`, the Activity is on record as 93%.
On the same count and under the same terms, the figure for `Cc1cc(Nc2ccc(OC(C)C)c(OC(C)C)c2)c2c(ccc3nc[nH]c32)n1` is 94%.
Take `COc1cc(Nc2cc(C)nc3ccc4nc[nH]c4c23)cc(OC)c1OC`: the outcome was inactive.
Consider `Cc1cc(Nc2cccc(Cl)c2C)c2c(ccc3nc[nH]c32)n1`, for which the Activity was determined as 94%.
Still for that read-out and setting: the figure for `Cc1cc(Nc2ccc(Cl)c(C(F)(F)F)c2)c2c(ccc3nc[nH]c32)n1` is 87%; for `Cc1cc(Nc2ccc(N(C)C)cc2)c2c(ccc3nc[nH]c32)n1` it is “inactive”; for `COc1cccc(Nc2cc(C)nc3ccc4[nH]cnc4c23)c1` it is “inactive”.
The same measure, in the same setting: the entry for `COc1cc(Cl)ccc1Nc1cc(C)nc2ccc3nc[nH]c3c12` is “inactive”; for `Cc1cc(Nc2ccc(N3CCCCC3)cc2)c2c(ccc3nc[nH]c32)n1` it is 62%; for `CCOc1ccc(OC)cc1Nc1cc(C)nc2ccc3nc[nH]c3c12` it is 76%.
Same read-out and setting: the figure for `CCCCc1ccc(Nc2cc(C)nc3ccc4nc[nH]c4c23)cc1Cl` is 100%; for `COc1cc(OC)c(Nc2cc(C)nc3ccc4nc[nH]c4c23)cc1Cl` it is 82%.
Turning to `COc1ccc(OC)c(Nc2cc(C)nc3ccc4nc[nH]c4c23)c1`, the result was inactive.
Regarding `Cc1cc(Nc2ccc(C)c(Cl)c2)c2c(ccc3nc[nH]c32)n1`, the Activity came to 90%.
The same measure, in the same setting: for `CC(=O)c1cccc(Nc2cc(C)nc3ccc4nc[nH]c4c23)c1` the value was “inactive”; for `Cc1cc(Nc2cccc(N(C)C)c2)c2c(ccc3nc[nH]c32)n1`, 87%; for `Cc1cc(Nc2ccc(C(C)C)cc2)c2c(ccc3nc[nH]c32)n1`, 53%.
`Cc1cc(Nc2ccc(N3CCCC3)c(Cl)c2)c2c(ccc3nc[nH]c32)n1`: the Activity came out at 46%.
In the case of `CCOc1ccc(Nc2cc(C)nc3ccc4nc[nH]c4c23)cc1`, the result was inactive.
Regarding `Cc1cc(Nc2ccc(Br)cc2)c2c(ccc3nc[nH]c32)n1`, the result was inactive.
For `CCOc1ccc(Nc2cc(C)nc3ccc4nc[nH]c4c23)cc1Cl`, the Activity was 50%.
Consider `Cc1cc(Nc2ccc(OCc3ccccc3)cc2)c2c(ccc3nc[nH]c32)n1`, for which the Activity was 64%.
Same read-out and setting: for `Cc1cc(Nc2ccc(N(C)C)c(Cl)c2)c2c(ccc3nc[nH]c32)n1` the value was “inactive”; for `COc1ccc(Nc2cc(C)nc3ccc4nc[nH]c4c23)cc1`, “inactive”.
As to `COc1ccc(Nc2cc(C)nc3ccc4nc(-c5ccccc5)[nH]c4c23)cc1`, the outcome was inactive.
Still for that read-out and setting: for `CCC(C)c1ccc(Nc2cc(C)nc3ccc4nc[nH]c4c23)cc1` (stereo not drawn) the value was “inactive”.
Still for that read-out and setting: the entry for `Cc1cc(Nc2ccc(F)c(Cl)c2)c2c(ccc3nc[nH]c32)n1` is “inactive”; for `Cc1cc(Nc2ccc(Cl)cc2C)c2c(ccc3nc[nH]c32)n1` it is “inactive”; for `CCCCCOc1ccc(Nc2cc(C)nc3ccc4nc[nH]c4c23)cc1OCCCCC` it is “inactive”.
On the same count and under the same terms, for `Cc1cc(Nc2ccc3ccccc3c2)c2c(ccc3nc[nH]c32)n1` the value was “inactive”; for `COc1ccc(Nc2cc(C)nc3ccc4nc[nH]c4c23)cc1OC`, “inactive”.
With `CSc1cccc(Nc2cc(C)nc3ccc4nc[nH]c4c23)c1`, the outcome was inactive.
Same read-out and setting: the entry for `COc1ccccc1Nc1cc(C)nc2ccc3nc[nH]c3c12` is “inactive”; for `Cc1cc(Nc2ccc(I)cc2)c2c(ccc3nc[nH]c32)n1` it is “inactive”; for `CCN(CC)c1ccc(Nc2cc(C)nc3ccc4nc[nH]c4c23)cc1` it is “inactive”.
Same read-out and setting: the entry for `Cc1cc(Nc2ccc(Cl)c(Cl)c2)c2c(ccc3nc[nH]c32)n1` is “inactive”.
For the compound `CCc1cc(Nc2ccc(OC)cc2)c2c(ccc3nc[nH]c32)n1`, the result was inactive.

Another assay concerns Rodentolepis nana. Kind of assay: Anthelmintic activity against Hymenolepis nana infected in mouse assessed as reduction in worm burden at 100 mg/kg administered bid for 3 days relative to control. The format is functional. Further details: scale not given: the % may be the effect or the level left.
As for `Cc1cc(Nc2cccc3ccccc23)c2c(ccc3nc[nH]c32)n1`, the Activity is 100%.
On the same count and under the same terms, the figure for `COc1ccc(Nc2cc(-c3ccccc3)nc3ccc4nc[nH]c4c23)cc1` is 66%; for `CSc1ccc(Nc2cc(C)nc3ccc4nc[nH]c4c23)cc1` it is 100%; for `Cc1cc(Nc2ccc(N3CCCCC3)c(Cl)c2)c2c(ccc3nc[nH]c32)n1` it is 100%.
Still for that read-out and setting: for `CCC(=O)c1ccc(Nc2cc(C)nc3ccc4nc[nH]c4c23)cc1` the value was 75%.
Same read-out and setting: for `Cc1cc(Nc2ccc(Oc3ccccc3)cc2)c2c(ccc3nc[nH]c32)n1` the value was 100%.
For the compound `CCc1ccc(Nc2cc(C)nc3ccc4nc[nH]c4c23)cc1Cl`, the Activity came to 100%.
Still for that read-out and setting: for `Cc1cc(Nc2ccc(OC(C)C)c(OC(C)C)c2)c2c(ccc3nc[nH]c32)n1` the value was 100%; for `COc1cc(Nc2cc(C)nc3ccc4nc[nH]c4c23)cc(OC)c1OC`, 70%; for `Cc1cc(Nc2cccc(Cl)c2C)c2c(ccc3nc[nH]c32)n1`, 100%.
The same measure, in the same setting: for `Cc1cc(Nc2ccc(Cl)c(C(F)(F)F)c2)c2c(ccc3nc[nH]c32)n1` the value was 84%.
As to `Cc1cc(Nc2ccc(N(C)C)cc2)c2c(ccc3nc[nH]c32)n1`, the Activity is 100%.
The same measure, in the same setting: for `COc1cccc(Nc2cc(C)nc3ccc4[nH]cnc4c23)c1` the value was 73%; for `COc1cc(Cl)ccc1Nc1cc(C)nc2ccc3nc[nH]c3c12`, 52%.
For the compound `Cc1cc(Nc2ccc(N3CCCCC3)cc2)c2c(ccc3nc[nH]c32)n1`, the Activity is on record as 64%.
On the same count and under the same terms, for `CCOc1ccc(OC)cc1Nc1cc(C)nc2ccc3nc[nH]c3c12` the value was 100%; for `CCCCc1ccc(Nc2cc(C)nc3ccc4nc[nH]c4c23)cc1Cl`, 100%.
Regarding `COc1cc(OC)c(Nc2cc(C)nc3ccc4nc[nH]c4c23)cc1Cl`, the Activity turned out to be 85%.
The same measure, in the same setting: for `COc1ccc(OC)c(Nc2cc(C)nc3ccc4nc[nH]c4c23)c1` the value was 100%; for `Cc1cc(Nc2ccc(C)c(Cl)c2)c2c(ccc3nc[nH]c32)n1`, 94%; for `CC(=O)c1cccc(Nc2cc(C)nc3ccc4nc[nH]c4c23)c1`, 96%.
Regarding `Cc1cc(Nc2cccc(N(C)C)c2)c2c(ccc3nc[nH]c32)n1`, the Activity amounted to 100%.
Same read-out and setting: the figure for `Cc1cc(Nc2ccc(C(C)C)cc2)c2c(ccc3nc[nH]c32)n1` is 100%; for `Cc1cc(Nc2ccc(N3CCCC3)c(Cl)c2)c2c(ccc3nc[nH]c32)n1` it is 100%; for `CCOc1ccc(Nc2cc(C)nc3ccc4nc[nH]c4c23)cc1` it is 100%.
On the same count and under the same terms, the figure for `Cc1cc(Nc2ccc(Br)cc2)c2c(ccc3nc[nH]c32)n1` is 61%.
On the same count and under the same terms, for `CCOc1ccc(Nc2cc(C)nc3ccc4nc[nH]c4c23)cc1Cl` the value was 100%; for `Cc1cc(Nc2ccc(OCc3ccccc3)cc2)c2c(ccc3nc[nH]c32)n1`, 81%.
As to `Cc1cc(Nc2ccc(N(C)C)c(Cl)c2)c2c(ccc3nc[nH]c32)n1`, the Activity turned out to be 71%.
The same measure, in the same setting: for `COc1ccc(Nc2cc(C)nc3ccc4nc[nH]c4c23)cc1` the value was 64%.
Still for that read-out and setting: the figure for `COc1ccc(Nc2cc(C)nc3ccc4nc(-c5ccccc5)[nH]c4c23)cc1` is 94%.
Still for that read-out and setting: the figure for `CCC(C)c1ccc(Nc2cc(C)nc3ccc4nc[nH]c4c23)cc1` (stereo not drawn) is 100%; for `Cc1cc(Nc2ccc(F)c(Cl)c2)c2c(ccc3nc[nH]c32)n1` it is 82%; for `Cc1cc(Nc2ccc(Cl)cc2C)c2c(ccc3nc[nH]c32)n1` it is 100%.
For `CCCCCOc1ccc(Nc2cc(C)nc3ccc4nc[nH]c4c23)cc1OCCCCC`, the Activity came out at 63%.
The same measure, in the same setting: for `Cc1cc(Nc2ccc3ccccc3c2)c2c(ccc3nc[nH]c32)n1` the value was 72%; for `COc1ccc(Nc2cc(C)nc3ccc4nc[nH]c4c23)cc1OC`, 73%; for `CSc1cccc(Nc2cc(C)nc3ccc4nc[nH]c4c23)c1`, 100%.
On the same count and under the same terms, for `COc1ccccc1Nc1cc(C)nc2ccc3nc[nH]c3c12` the value was 66%; for `Cc1cc(Nc2ccc(I)cc2)c2c(ccc3nc[nH]c32)n1`, 84%; for `CCN(CC)c1ccc(Nc2cc(C)nc3ccc4nc[nH]c4c23)cc1`, 79%.
Still for that read-out and setting: for `Cc1cc(Nc2ccc(Cl)c(Cl)c2)c2c(ccc3nc[nH]c32)n1` the value was 65%; for `Cc1cc(Nc2ccccc2)c2c(ccc3nc[nH]c32)n1`, 40%.
As for `CCc1cc(Nc2ccc(OC)cc2)c2c(ccc3nc[nH]c32)n1`, the Activity came out at 46%.

The subject of a further assay is Rodentolepis nana. The assay can be described thus: Anthelmintic activity against Hymenolepis nana infected in mouse assessed as reduction in worm burden at 25 mg/kg administered bid for 3 days relative to control. The format is functional.
Regarding `Cc1cc(Nc2ccc(N3CCCCC3)c(Cl)c2)c2c(ccc3nc[nH]c32)n1`, the outcome was inactive.
On the same count and under the same terms, for `CCC(=O)c1ccc(Nc2cc(C)nc3ccc4nc[nH]c4c23)cc1` the value was “inactive”.
`Cc1cc(Nc2ccc(Oc3ccccc3)cc2)c2c(ccc3nc[nH]c32)n1`: the result was inactive.
On the same count and under the same terms, the entry for `CCc1ccc(Nc2cc(C)nc3ccc4nc[nH]c4c23)cc1Cl` is “inactive”; for `Cc1cc(Nc2ccc(OC(C)C)c(OC(C)C)c2)c2c(ccc3nc[nH]c32)n1` it is “inactive”.
As to `Cc1cc(Nc2cccc(Cl)c2C)c2c(ccc3nc[nH]c32)n1`, the result was inactive.
Take `Cc1cc(Nc2ccc(Cl)c(C(F)(F)F)c2)c2c(ccc3nc[nH]c32)n1`: the result was inactive.
For `Cc1cc(Nc2ccc(N3CCCCC3)cc2)c2c(ccc3nc[nH]c32)n1`, the outcome was inactive.
Still for that read-out and setting: the entry for `CCOc1ccc(OC)cc1Nc1cc(C)nc2ccc3nc[nH]c3c12` is “inactive”.
The same measure, in the same setting: for `CCCCc1ccc(Nc2cc(C)nc3ccc4nc[nH]c4c23)cc1Cl` the value was 65%; for `COc1cc(OC)c(Nc2cc(C)nc3ccc4nc[nH]c4c23)cc1Cl`, “inactive”.
Same read-out and setting: for `Cc1cc(Nc2ccc(C)c(Cl)c2)c2c(ccc3nc[nH]c32)n1` the value was “inactive”; for `Cc1cc(Nc2cccc(N(C)C)c2)c2c(ccc3nc[nH]c32)n1`, “inactive”.
For `Cc1cc(Nc2ccc(C(C)C)cc2)c2c(ccc3nc[nH]c32)n1`, the outcome was inactive.
Same read-out and setting: the entry for `Cc1cc(Nc2ccc(N3CCCC3)c(Cl)c2)c2c(ccc3nc[nH]c32)n1` is “inactive”; for `CCOc1ccc(Nc2cc(C)nc3ccc4nc[nH]c4c23)cc1Cl` it is “inactive”.
